Test results: ChEMBL document CHEMBL1201862, “PubChem BioAssay data set” (2004)
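Growth conditions: 96-well plates. Treatment: test compound, 48 hours, 5 concentrations. Analysis: linear interpolation between bracketing concentrations; unreached endpoints set to highest concentration. The concentration for 50% growth inhibition is given as GI50.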 The source made the active and inactive calls. No stated cut-off is given here; in the data, active = GI50 up to about 1.1 µM and inactive = higher.

Experiments:
Test in all cases: NCI anticancer screen, dose series, 48 h
[1] = system: LOX IMVI
[2] = system: A549
[3] = system: COLO 205
[4] = system: SF-268
[5] = system: SK-OV-3
[6] = system: SK-MEL-28
[7] = system: HOP-92
[8] = system: SNB-19
[9] = system: UO-31
[10] = system: UACC-62
[11] = system: M14
[12] = system: SF-539
[13] = system: OVCAR-8
[14] = system: SK-MEL-2
[15] = system: NCI-H226
[16] = system: KM12
[17] = system: HCC 2998

Compound | GI50 [1] | GI50 [2] | GI50 [3] | GI50 [4] | GI50 [5] | GI50 [6] | GI50 [7] | GI50 [8] | GI50 [9] | GI50 [10] | GI50 [11] | GI50 [12] | GI50 [13] | GI50 [14] | GI50 [15] | GI50 [16] | GI50 [17]
CCC1(CC)C(=O)NC(=S)N=C1N | > 100 µM (inactive) | > 100 µM (inactive) | > 100 µM (inactive) | > 100 µM (inactive) | > 100 µM (inactive) | > 100 µM (inactive) | > 100 µM (inactive) | > 100 µM (inactive) | > 100 µM (inactive) | > 100 µM (inactive) | > 100 µM (inactive) | > 100 µM (inactive) | > 100 µM (inactive) | > 100 µM (inactive) | > 100 µM (inactive) | – | –
CCc1cccc(C)c1NC(=O)C1=C(C)NC(C)=C(C(=O)Nc2c(C)cccc2CC)C1c1ccc([N+](=O)[O-])cc1 | 40.9 µM (inactive) | 33.5 µM (inactive) | 21.9 µM (inactive) | 39.9 µM (inactive) | > 100 µM (inactive) | 51.4 µM (inactive) | 2.75 µM (inactive) | 53.5 µM (inactive) | 16.3 µM (inactive) | – | 34.8 µM (inactive) | > 100 µM (inactive) | 49.5 µM (inactive) | 35.6 µM (inactive) | 39.8 µM (inactive) | 49.9 µM (inactive) | 21.3 µM (inactive)
O=c1[nH]c(=O)n([C@@H]2C[C@H](CO)[C@H](O)C2)cc1/C=C/Br | > 100 µM (inactive) | > 100 µM (inactive) | – | > 100 µM (inactive) | > 100 µM (inactive) | > 100 µM (inactive) | > 100 µM (inactive) | > 100 µM (inactive) | > 100 µM (inactive) | > 100 µM (inactive) | > 100 µM (inactive) | > 100 µM (inactive) | > 100 µM (inactive) | > 100 µM (inactive) | > 100 µM (inactive) | > 100 µM (inactive) | > 100 µM (inactive)
Cc1ccc(NC(=O)CC/C(CC(=O)C(C)(C)C)=N\Nc2ccc([N+](=O)[O-])cc2[N+](=O)[O-])cc1C | 31.6 µM (inactive) | 37.7 µM (inactive) | > 100 µM (inactive) | > 100 µM (inactive) | > 100 µM (inactive) | > 100 µM (inactive) | 27 µM (inactive) | > 100 µM (inactive) | 53.2 µM (inactive) | 32.2 µM (inactive) | 0.0129 µM (active) | 59.4 µM (inactive) | 59.6 µM (inactive) | 76.4 µM (inactive) | > 100 µM (inactive) | 67.5 µM (inactive) | –
COc1cc(C2C(Cl)C(=O)N2NC(=O)Cc2ccccc2)ccc1O (stereo not drawn) | 77.4 µM (inactive) | > 100 µM (inactive) | > 100 µM (inactive) | > 100 µM (inactive) | > 100 µM (inactive) | > 100 µM (inactive) | – | 47.3 µM (inactive) | 22.6 µM (inactive) | 73.3 µM (inactive) | > 100 µM (inactive) | – | > 100 µM (inactive) | > 100 µM (inactive) | 55.6 µM (inactive) | 91 µM (inactive) | 57.5 µM (inactive)
N#CC(c1ccccn1)c1nc2ccccc2[nH]1 (stereo not drawn) | – | > 100 µM (inactive) | > 100 µM (inactive) | > 100 µM (inactive) | > 100 µM (inactive) | > 100 µM (inactive) | – | > 100 µM (inactive) | > 100 µM (inactive) | 70.3 µM (inactive) | > 100 µM (inactive) | – | 84.5 µM (inactive) | > 100 µM (inactive) | > 100 µM (inactive) | – | > 100 µM (inactive)
O=c1cc(-c2ccccc2)nc(/C=C(\O)c2ccncc2)n1-c1ccccc1 | > 100 µM (inactive) | > 100 µM (inactive) | > 100 µM (inactive) | > 100 µM (inactive) | > 100 µM (inactive) | > 100 µM (inactive) | > 100 µM (inactive) | > 100 µM (inactive) | > 100 µM (inactive) | > 100 µM (inactive) | > 100 µM (inactive) | > 100 µM (inactive) | > 100 µM (inactive) | > 100 µM (inactive) | > 100 µM (inactive) | > 100 µM (inactive) | > 100 µM (inactive)
COc1ccc(C(C2=C(O)CC(C)OC2=O)C2=C(O)CC(C)OC2=O)cc1 (stereo not drawn) | > 100 µM (inactive) | > 100 µM (inactive) | > 100 µM (inactive) | > 100 µM (inactive) | – | > 100 µM (inactive) | – | > 100 µM (inactive) | > 100 µM (inactive) | > 100 µM (inactive) | > 100 µM (inactive) | > 100 µM (inactive) | > 100 µM (inactive) | > 100 µM (inactive) | > 100 µM (inactive) | > 100 µM (inactive) | > 100 µM (inactive)
OCC(O)C(OC1OC(CO)C(O)C(O)C1O)c1nn(-c2ccc(F)cc2)c2nc3cc(Cl)c(Cl)cc3cc12 (stereo not drawn) | > 100 µM (inactive) | – | – | > 100 µM (inactive) | > 100 µM (inactive) | > 100 µM (inactive) | – | > 100 µM (inactive) | > 100 µM (inactive) | > 100 µM (inactive) | > 100 µM (inactive) | > 100 µM (inactive) | > 100 µM (inactive) | – | – | > 100 µM (inactive) | > 100 µM (inactive)
COc1ccc2[nH]c3c4c(c5cc(C(C)(C)C)ccc5c3c2c1)C(=O)N(c1ccccc1)C4=O | > 100 µM (inactive) | > 100 µM (inactive) | > 100 µM (inactive) | > 100 µM (inactive) | > 100 µM (inactive) | > 100 µM (inactive) | – | > 100 µM (inactive) | > 100 µM (inactive) | > 100 µM (inactive) | 54.3 µM (inactive) | 21.7 µM (inactive) | 44.7 µM (inactive) | > 100 µM (inactive) | > 100 µM (inactive) | > 100 µM (inactive) | 21.3 µM (inactive)
O=C(/N=C(\Nc1ccccc1)SCCS/C(=N/C(=O)c1cccs1)Nc1ccccc1)c1cccs1 | 36.3 µM (inactive) | 41.8 µM (inactive) | 77.1 µM (inactive) | > 10 µM (inactive) | – | 49.9 µM (inactive) | 6.37 µM (inactive) | > 100 µM (inactive) | 31.7 µM (inactive) | 47 µM (inactive) | 55.8 µM (inactive) | > 100 µM (inactive) | 73.3 µM (inactive) | 94.6 µM (inactive) | 55.8 µM (inactive) | 41 µM (inactive) | 35.1 µM (inactive)
COc1ccc(/C=N/N=C(\N)NO)c(Cl)c1O | 3.1 µM (inactive) | 5.43 µM (inactive) | 33 µM (inactive) | 13.2 µM (inactive) | 22 µM (inactive) | 9.57 µM (inactive) | 35.2 µM (inactive) | 41 µM (inactive) | 11.2 µM (inactive) | 12.9 µM (inactive) | – | 12.2 µM (inactive) | 12.2 µM (inactive) | 14.2 µM (inactive) | 8.32 µM (inactive) | 12.5 µM (inactive) | 14.6 µM (inactive)
Cc1ccccc1NC(=O)/C=N/O | > 100 µM (inactive) | > 100 µM (inactive) | > 100 µM (inactive) | > 100 µM (inactive) | > 100 µM (inactive) | > 100 µM (inactive) | – | > 100 µM (inactive) | > 100 µM (inactive) | 14.6 µM (inactive) | > 100 µM (inactive) | – | > 100 µM (inactive) | > 100 µM (inactive) | > 100 µM (inactive) | > 100 µM (inactive) | > 100 µM (inactive)
COC(c1ccccc1)C(c1ccccc1)N1CCOCC1 (stereo not drawn) | > 100 µM (inactive) | > 100 µM (inactive) | > 100 µM (inactive) | > 100 µM (inactive) | > 100 µM (inactive) | > 100 µM (inactive) | > 100 µM (inactive) | > 100 µM (inactive) | > 100 µM (inactive) | > 100 µM (inactive) | > 100 µM (inactive) | > 100 µM (inactive) | > 100 µM (inactive) | > 100 µM (inactive) | > 100 µM (inactive) | > 100 µM (inactive) | > 100 µM (inactive)
O=C1C(Cl)C(c2ccccc2O)N1n1cnc2ccccc2c1=O (stereo not drawn) | 61 µM (inactive) | 63.1 µM (inactive) | 30.1 µM (inactive) | 43.4 µM (inactive) | 25.1 µM (inactive) | 70.1 µM (inactive) | – | 63.8 µM (inactive) | 50 µM (inactive) | 44.3 µM (inactive) | 80.2 µM (inactive) | – | 92.7 µM (inactive) | > 100 µM (inactive) | 62.2 µM (inactive) | > 100 µM (inactive) | > 100 µM (inactive)
O=C(N/C(=C\c1ccc([N+](=O)[O-])cc1)c1nc2cc(Cl)ccc2[nH]1)c1ccccc1 | – | 20.8 µM (inactive) | – | 18.4 µM (inactive) | 39.4 µM (inactive) | 22.9 µM (inactive) | 14 µM (inactive) | 24.9 µM (inactive) | 13.9 µM (inactive) | 18.7 µM (inactive) | 17.3 µM (inactive) | 19.1 µM (inactive) | 30.1 µM (inactive) | 21.9 µM (inactive) | – | 21.1 µM (inactive) | 18 µM (inactive)
CCNC(=O)COc1ccc(Cl)cc1Cl | – | > 100 µM (inactive) | > 100 µM (inactive) | > 100 µM (inactive) | > 100 µM (inactive) | > 100 µM (inactive) | > 100 µM (inactive) | > 100 µM (inactive) | > 100 µM (inactive) | – | > 100 µM (inactive) | > 100 µM (inactive) | > 100 µM (inactive) | > 100 µM (inactive) | > 100 µM (inactive) | > 100 µM (inactive) | –
Cc1ccc(NC(=O)NC23CC4CC(CC(F)(C4)C2)C3)cc1 | > 100 µM (inactive) | > 100 µM (inactive) | > 100 µM (inactive) | – | > 100 µM (inactive) | > 100 µM (inactive) | 55.2 µM (inactive) | > 100 µM (inactive) | 40.1 µM (inactive) | 69.3 µM (inactive) | 95.3 µM (inactive) | > 100 µM (inactive) | > 100 µM (inactive) | > 100 µM (inactive) | – | 82.6 µM (inactive) | > 100 µM (inactive)
